The source of these data is patent publication US20170119899A1, “COMPOSITIONS AND METHODS FOR TREATMENT OF PEROXISOMAL DISORDERS AND LEUKODYSTROPHIES” (The Johns Hopkins University, priority 2015, published 2017).

The nature of data set [1]: Solubility and stability. Format: physicochemical.
Data set [2] deals with cells from X-ALD patients and X-ALD knockout mice. The conditions noted are these: cited from earlier work.
The subject of data set [3] is primary fibroblasts from male patients with cerebral ALD or AMN. In words: LysoPC C26/C22 ratio in ALD/AMN patient-derived fibroblasts. Format: cell-based, human. As to conditions: 100 μM free 4PBA. How it is done:
Primary fibroblasts from male patients with either cerebral adrenoleukodystrophy (ALD) or adrenomyeloneuropathy (AMN) phenotype were thawed and plated in wells to grow for 4 days. On the 4th day cells were treated with various doses of Dendrimer-4phenylbutyrate (D4PBA) or free 4PBA and maintained in the culture, the treatment was refreshed on Day 7. Cells were harvested for analysis on Day 11. The C26:0, C22:0, and C20:0 very long chain fatty acid fraction of lysophosphatidyl choline (LysoPC) was measured in the harvested cells and the Lyso PC C26/C22 fraction was then calculated as a measure of impaired peroxisomal beta-oxidation.

Data set [4] relates to TNF-alpha. Put plainly: VLCFA-induced TNF-alpha in patient-derived macrophages treated with D4PBA. Format: cell-based, human. As to conditions: 300 micromolar; controls, cerebral ALD and AMN patients. How it is done: In a further experiment, peripheral blood mononucleocytes were derived from a cerebral ALD patient, two AMN and one control subject differentiated in culture using same protocol as above for D-NAC therapy. On day 3, cells were treated with various doses of D4-PBA, and then again on day 5, and day 7. On day 7, macrophages were again stimulated with very long chain fatty acids (VLCFA) as in the D-NAC macrophage study mentioned above. Cells were then harvested at 6 h after stimulation.

For data set [5] the following is noted: three boys, 140 mg/kg/day i.v. then 70 mg/kg four times daily orally; cited from earlier work.
Data set [6] concerns X-ALD mice. As to conditions: mouse, in vivo; cited from earlier work.
The conditions of data set [7]: mouse, in vivo; cited from earlier work.
The conditions of data set [8]: in vivo; cited from earlier work.
For data set [9] the following is noted: in vivo; cited from earlier work. This is another data set of the same source.

With `CC(C)(Oc1ccc(CCNC(=O)c2ccc(Cl)cc2)cc1)C(=O)O` [Bezafibrate], the Water solubility entry in data set [1] is listed as “water insoluble”.

With `O=C(O)CCCc1ccccc1` [Free 4PBA, 4-phenyl butyric acid], in data set [2], the “Very-long-chain fatty acid levels and beta-oxidation” value was “decreased levels of and increased beta-oxidation of very-long-chain fatty acids”. Further, the “LysoPC C26/C22 ratio, free drug” value in data set [3] was “no effect”. In addition, the Water solubility result in data set [1] is “water insoluble”. Also, the “VLCFA-induced TNF-alpha response, free drug” value in data set [4] was “reduced the VLCFA-induced TNF-alpha response”. `CC(=O)N[C@@H](CS)C(=O)O` [NAC, N-acetyl-L-cysteine]: in data set [5], the “MRI progression in advanced ccALD” value was “slowing of MRI progression and reversal of gadolinium-contrast enhancement on MRI”. With `Oc1ccc(C=Cc2cc(O)cc(O)c2)cc1` [Resveratrol], the “Redox homeostasis, mitochondrial respiration, axonal degeneration, locomotor disabilities” value in [6] is “normalize redox homeostasis, mitochondrial respiration, bioenergetic failure, axonal degeneration and associated locomotor disabilities in the X-ALD mice”.

For the molecule `C[C@@H]1C[C@H]2[C@@H]3CCC4=CC(=O)C=C[C@]4(C)C3=CC[C@]2(C)[C@@]1(O)C(=O)CO` [VBP15], the Muscular dystrophy entry in data set [7] is recorded as “improves muscular dystrophy without side effects”. For the molecule `Cc1cc(OCC(=O)O)cc(C)c1Cc1ccc(O)c(C(C)C)c1` [sobetirome], the “Serum lipids and cholesterol in animal models” value in data set [8] is “reduced serum lipids, decreased cholesterol levels”. For the same molecule, the “Plasma LDL cholesterol and triglycerides in humans” value in data set [9] was “lowers plasma LDL cholesterol and reduces plasma triglycerides”.
